Test results reported in article PMC5500575, “Identification of Histamine H3 Receptor Ligands Using a New Crystal Structure Fragment-based Method” (Scientific Reports, 2017).
“Also recorded” adds a separate entry of the source.

Experiments:
[1] = molecular target: mouse H3 receptor; conditions: Gqi5, Ca2+ release; cited from earlier work
[2] = molecular target: H3 receptor; set-up: method as in ChEMBL [64]; conditions: known H3 ligand; ref ChEMBL [64]; cited from earlier work
[3] = molecular target: T1, human histamine H3 receptor (Homo sapiens, UniProt Q9Y5N1); assay: IP-One (HTRF IP1 accumulation) assay, H3 receptor co-expressed with chimeric Gqi5 in tsA201 cells; format: cell-based; conditions: antagonist mode; for Result of first pharmacological assaying (pharmacophore screening hits): 20 µM compound, EC80 histamine; for IC50 / pIC50 ± SEM: in the presence of EC80 of histamine
T1 construct: expressed in transfected cells; host or cells: tsA201 cells (transformed HEK-293), transient transfection
Method: Human tsA201 cells, a transformed HEK-293 cell line[70], were cultivated in Dulbecco’s Modified Eagle’s Medium (DMEM) with GlutaMAX, supplemented with 10% foetal bovine serum, penicillin 100 U/ml and streptomycin 100 µg/ml. Subconfluent cells grown in a 100 mm dish were transfected with 5 μg DNA using the Polyfect transfection reagent using the protocol of the manufacturer (Qiagen, West Sussex, UK), however with half of the recommended PolyFect volumes. Co-transfections (ratio 4:1) were performed with either constructs expressing the human histamine H3 receptor together with an empty vector and chimeric G protein Gqi5, respectively.
We applied the highly sensitive high-throughput homogeneous time-resolved fluorescence (HTRF) technology[71] for detection of IP-One generation using the Cisbio IP-One Tb assay kit, exactly as previously described. In brief, on the day of assay, ligand solutions were prepared in ligand buffer (Hank’s Balanced Salt Solution (HBSS) containing 20 mM HEPES pH 7.4, 1 mM CaCl2, 1 mM MgCl2, 40 mM LiCl)) and added to the wells of a 384-well OptiPlate (PerkinElmer, Waltham, USA) in triplicates. When testing for antagonist activity the ligand buffer was supplemented with an EC80 concentration of histamine, and we used a final compound concentration of 20 µM and 2 µM for the first (virtual hits) and second (analogues) screening, respectively. Cell suspensions were added and incubated with ligands for 1 hour, followed by the addition of detection solution (IP-One Tb conjugate & Lysis Buffer +2.5% anti-IP1 cryptate Tb conjugate +2.5% IP1-d2 conjugate. 38:1:1) and incubation in the dark for one hour at room temperature. The plate was read on an EnVision 2104 Multilabel Reader (PerkinElmer) by exciting the wells with light of 340 nm and measuring the emission at 615 nm and 665 nm. The fluorescence resonance energy transfer ratios (665 nm/615 nm) were converted to IP1 concentrations by interpolating values from an IP1 standard curve generated from an IP1 calibration stock, provided by the manufacturer (Cisbio).
Data were analysed using GraphPad Prism 6 (GraphPad Software, San Diego, CA, USA). Concentration-response curves were fitted by nonlinear regression to equation (1):1 R=Rmax+Rmax−Rmin/1+10^(logIC50−X)∗nH where X is the logarithm of the concentration, R is the response, R max is the maximal response, R min is the minimal response, IC50 is the concentration giving half-maximum reduction of the response, and nH is the Hill coefficient, which describes the steepness of the curve. IP-One assay results are reported either as raw FRET in arbitrary units, as IP1 concentration (nM) or as fold over basal (normalized to the basal level of IP1 in ligand buffer [IP1]/[IP1]basal). The Z′-factors were calculated using equation (2):2 Z′=1−3σc++3σc−/|µc+−µc−|

[4] = molecular target: T2, human H3 receptor (Homo sapiens, UniProt Q9Y5N1); assay: [3H]N-α-methylhistamine radioligand competition binding assay; conditions: for Ki / Affinity (pKi): 0.3 nM [3H]N-α-methylhistamine; for Ki: Cheng-Prusoff with Kd 0.15 nM; for Affinity (pKi): ± SEM; for Competition with [3H]N-α-methylhistamine binding (in words): 0.3 nM radioligand, NSB defined with 10 µM histamine; for Change of potency upon repeated experimentation: possibly due to compound breakdown
T2 construct: expressed in transfected cells; host or cells: HEK-293T cells, membranes
Method: HEK-239T cells were grown to 70% confluency in 150 mm cell culture dishes and transfected with 8 µg human H3 receptor using the Polyfect transfection reagent as previously described. After 48 hours, cells were washed from each cell culture dish with Dulbecco’s phosphate buffered saline and harvested using a cell scraper. The resulting cell suspension was then centrifuged and resuspended in 500 µL lysis buffer (50 mM Tris-HCl, pH 7.4). The cell lysate was centrifuged at 16,000 g for 20 minutes at 4 °C. The resultant membrane pellets were stored at −80 °C until use. Each pellet was resuspended in 500 µL binding buffer (50 mM Tris-HCl, 0.5 mM EDTA, pH 7.4), homogenized and centrifuged at 16,000 g for 15 minutes at 4 °C, and subsequently resuspended in 15 mL of binding buffer to a desired protein concentration of approximately 0.2 mg/mL as determined by the method of Bradford[73]. The membrane solution (30 µg protein per well) was incubated for 90 minutes in 250 µL of binding buffer, with or without compound, together with 0.3 nM [^3H]N-α-methylhistamine at room temperature. Non-specific binding was defined as the radioligand bound to membrane solution incubated with 10 µM histamine. The binding reaction was terminated by rapid filtration through Whatman GF/C unifilters (PerkinElmer), and washed four times with ice-cold wash buffer (50 mM Tris-HCl, 10 mM MgCl2, 0.1 mM EDTA, pH 7.4) using a 96-well Packard FilterMate cell harvester (PerkinElmer). Finally, Microscint 0 scintillation liquid (PerkinElmer) was added to the dried filters, and the radioactivity quantified in a Packard TopCount NXT microplate Scintillation Counter (PerkinElmer).
The binding data was fitted by nonlinear regression to equation (3):3 Y=Ymax+Ymax−Ymin/1+10^X−logIC50 where X is the logarithm of the concentration, Y is the specific binding, Y max is the maximal specific binding, Y min is the minimal specific binding, and IC50 is the concentration giving half-maximum reduction in specific binding.

T1 sequence (Q9Y5N1 whole entry): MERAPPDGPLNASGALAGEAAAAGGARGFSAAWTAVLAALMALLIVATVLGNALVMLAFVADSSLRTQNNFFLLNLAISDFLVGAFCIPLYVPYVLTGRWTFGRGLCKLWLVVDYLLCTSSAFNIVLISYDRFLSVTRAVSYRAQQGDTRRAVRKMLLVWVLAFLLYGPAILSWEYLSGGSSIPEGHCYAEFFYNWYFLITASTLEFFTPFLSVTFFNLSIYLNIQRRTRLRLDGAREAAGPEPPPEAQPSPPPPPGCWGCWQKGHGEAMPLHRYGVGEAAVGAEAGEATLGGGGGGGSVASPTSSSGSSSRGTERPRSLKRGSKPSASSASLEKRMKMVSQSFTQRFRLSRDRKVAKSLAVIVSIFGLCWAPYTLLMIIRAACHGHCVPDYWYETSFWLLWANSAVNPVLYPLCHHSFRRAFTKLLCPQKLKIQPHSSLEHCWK
T2 sequence (Q9Y5N1 whole entry): as above

| Structure (SMILES) | Affinity (pKi) of most similar ChEMBL ligand [2] | Result of first pharmacological assaying (pharmacophore screening hits) [3] | IC50 [3] | pIC50 ± SEM [3] | Ki [4] | Affinity (pKi) [4] | other results |
| --- | --- | --- | --- | --- | --- | --- | --- |
| NCCc1c[nH]cn1 [histamine] | – | – | – | – | – | – | EC50 [1]: 0.0218 µM |
| CN(C)CCCNc1c2c(nc3ccccc13)CCCCC2 [ChEMBL 65849] | 8.0 | – | – | – | – | – | – |
| Cc1ccc2c(c1)c1c3n2CCN(CC(O)CNCc2ccccc2)C3CCC1 (centres unmarked) [Compound 42] | – | antagonist hits | 42.1 µM | 4.38±0.11 | 14.8 µM | 4.83±0.08 | Competition with [3H]N-α-methylhistamine binding (in words) [4]: unable to outcompete radiolabeled ligand to NSB levels; also recorded: unable to lower the binding of [^3H]N-α-methylhistamine to non-specific binding levels |
| CNCc1cc(C#CCCN2CCNC(=O)C2)ccc1Oc1ccc(SC)cc1 [ChEMBL 237514] | 6.1 | – | – | – | – | – | – |
| CCN(Cc1nc2ccccc2[nH]1)CC1CCCN(CCc2cccc(OC)c2)C1 (centres unmarked) [Compound 9] | – | seemingly active | – | – | 1.75 µM | 5.76±0.25 | Change of potency upon repeated experimentation [4]: continued decrease in potency observed upon repeated experimentation |
| CCN1CCNC(=O)C1CC(=O)N1CCc2[nH]c3c(C)cccc3c2C1 (centres unmarked) [Compound 64] | – | – | 261 µM | 3.58±0.17 | 86.7 µM | 4.06±0.11 | – |
| Cc1nccn1-c1ccc(CNCc2cccc(C#N)c2)cc1F [Compound 20] | – | borderline activity | – | – | 4.24 µM | 5.37±0.12 | Change of potency upon repeated experimentation [4]: continued decrease in potency observed upon repeated experimentation |
| Cc1nc(N2CCN(c3ncc[nH]c3=O)CC2)c2sccc2n1 [Compound 21] | – | antagonist hits | 20.9 µM | 4.68±0.10 | > 50 µM | – | Competition with [3H]N-α-methylhistamine binding (in words) [4]: little to no effect on radiolabeled ligand binding; also recorded: unable to compete with binding |
| CCCCN1CN(CCCN2CCCCC2)Cn2c1nc1ccccc12 [Compound 35] | – | antagonist hits | 3.3 µM | 5.5 ± 0.27 | 1.75 µM | 5.76 ± 0.05 | – |
| Cc1ccc(CN2CCCN(C(=O)CCSCc3cn4ccccc4n3)CC2)cc1 [Compound 44] | – | seemingly active | – | – | 2.82 µM | 5.55±0.06 | Competition with [3H]N-α-methylhistamine binding (in words) [4]: unable to outcompete radiolabeled ligand to NSB levels; also recorded: unable to lower the binding of [^3H]N-α-methylhistamine to non-specific binding levels |
| c1ccc2c(c1)nc1n(CCN3CCCCC3)cnn21 [ChEMBL 1923529] | 6.2 | – | – | – | – | – | – |
| OC1(c2ccccn2)CCCN(c2nnc(N3CCC(N4CCCCC4)CC3)s2)C1 (centres unmarked) [ChEMBL 2048591] | 7.3 | – | – | – | – | – | – |
| CN1CCC(C(=O)c2cc3cc(Cl)ccc3[nH]2)CC1 [ChEMBL 186456] | 5.5 | – | – | – | – | – | – |
| COc1cccc(OCCN2CCC(N3CCCCC3)CC2)c1 [ChEMBL 460313] | 6.9 | – | – | – | – | – | – |
| CCCCN1CN(CCCN(C)c2ccccc2)Cn2c1nc1ccccc12 [Compound 68] | – | – | 22 µM | 4.66±0.20 | > 300 µM | – | Competition with [3H]N-α-methylhistamine binding (in words) [4]: little to no effect on radiolabeled ligand binding; also recorded: unable to compete with binding |
| Cc1ccc2c(c1)c1c3n2CCN(CC(O)CN2CCN(C)CC2)C3CCC1 (centres unmarked) [Compound 75] | – | – | 121 µM | 3.92±0.18 | 4.82 µM | 5.32±0.04 | – |
